Measurements from US20250163104A1, “MACROCYCLIC IMMUNOMODULATORS” (priority 2021, published 2025).
Where a SMILES comes first, the peptide text is derived from it. Bridges are numbered along the chain shown (N, C = ends). [ ]: non-standard residue; d: D form. Bip = N[C@@H](Cc1ccc(-c2ccccc2)cc1)C(=O)O; Orn = NCCC[C@H](N)C(=O)O; Dab = NCC[C@H](N)C(=O)O; Dap = NC[C@H](N)C(=O)O

The molecules below were run against T1, human PD-1 / PD-L1-Ig binding on Jurkat cell line over-expressing human PD-1 (Jurkat-PD-1) (Homo sapiens, UniProt Q15116) (assay: Jurkat-PD-1 Cell Binding High-Content Screening Assay (CBA)). Settings: Jurkat-PD-1 cells, PE-labeled PD-L1-Ig 20 nM final; read-out: Jurkat HPD1_PDL1 IC50.
T1 construct: expressed in transfected cells; host or cells: Jurkat
Format: cell-based
Method: Example 3. Jurkat-PD-1 Cell Binding High-Content Screening Assay (CBA)
Jurkat-PD-1 Cell Binding High-Content Screening Assay (CBA). Phycoerythrin (PE) was covalently linked to the Ig epitope tag of human PD-L1-Ig and fluorescently-labeled PD-L1-Ig was used for binding studies with a Jurkat cell line over-expressing human PD-1 (Jurkat-PD-1). Briefly, 8×10^3 Jurkat-hPD-1 cells were seeded into 384 well plates in 20 μl of DMEM supplemented with 10% fetal calf serum. 100 nL of compound was added to cells followed by incubation at 37° C. for 2 h. Then, 5 μl of PE-labeled PD-L1-Ig (20 nM final), diluted in DMEM supplemented with 10% fetal calf serum. After 1 hour incubation, cells were fixed with 4% paraformaldehyde in dPBS containing 10 μg/ml Hoechst 33342 and then washed 3x in 100 μl dPBS. Data was collected and processed using a Cell Insight NXT High Content Imager and associated software.

T1 sequence (Q15116 25-288): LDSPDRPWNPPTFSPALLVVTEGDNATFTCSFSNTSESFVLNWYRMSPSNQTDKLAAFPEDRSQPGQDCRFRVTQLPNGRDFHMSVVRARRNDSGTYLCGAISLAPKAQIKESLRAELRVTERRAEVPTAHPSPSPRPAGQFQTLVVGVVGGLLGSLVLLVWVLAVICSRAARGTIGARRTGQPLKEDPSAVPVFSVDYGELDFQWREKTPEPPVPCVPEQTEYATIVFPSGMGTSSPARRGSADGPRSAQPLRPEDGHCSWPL

SMILES	IC50
CC(C)C[C@@H]1NC(=O)[C@H](CCN)NC(=O)[C@@H](CC(C)C)NC(=O)[C@H](CCCN)NC(=O)[C@H](CCCNC(=N)N)NC(=O)[C@H](Cc2ccc(-c3ccccc3)cc2)NC(=O)[C@H](C(C)C)NC(=O)[C@H](Cc2c[nH]c3ccccc23)NC(=O)[C@H](CC(=O)O)NC(=O)[C@H](Cc2ccc(O)cc2)NC(=O)[C@H](CC(N)=O)NC(=O)CSC[C@@H](C(=O)N[C@@H](C)C(N)=O)NC(=O)[C@H]([C@@H](C)O)NC(=O)[C@H](C(C)C)NC1=O [Compound 1005] ({CH2CO}-NYDWV[Bip]R[Orn][dL][Dab]LVTCA-NH2; thioether N-14)	35.8 nM
CC(C)C[C@@H]1NC(=O)[C@H](CCCNC(=N)N)NC(=O)[C@@H](CC(C)C)NC(=O)[C@H](C)NC(=O)[C@H](CCCNC(=N)N)NC(=O)[C@H](Cc2ccc(-c3ccccc3)cc2)NC(=O)[C@H](C(C)C)NC(=O)[C@H](Cc2c[nH]c3ccccc23)NC(=O)[C@H](CC(=O)O)NC(=O)[C@H](Cc2ccc(O)cc2)NC(=O)[C@H](CC(N)=O)NC(=O)CSC[C@@H](C(=O)N[C@@H](C)C(N)=O)NC(=O)[C@H]([C@@H](C)O)NC(=O)[C@H](C(C)C)NC1=O [Compound 1006] ({CH2CO}-NYDWV[Bip]RA[dL]RLVTCA-NH2; thioether N-14)	98.1 nM
CC(C)C[C@@H]1NC(=O)[C@H](CCCNC(=N)N)NC(=O)[C@@H](CC(C)C)NC(=O)[C@H](CCCCN)NC(=O)[C@H](CCCNC(=N)N)NC(=O)[C@H](Cc2ccc(-c3ccccc3)cc2)NC(=O)[C@H](C(C)C)NC(=O)[C@H](Cc2c[nH]c3ccccc23)NC(=O)[C@H](CC(=O)O)NC(=O)[C@H](Cc2ccc(O)cc2)NC(=O)[C@H](CC(N)=O)NC(=O)CSC[C@@H](C(=O)N[C@@H](C)C(N)=O)NC(=O)[C@H]([C@@H](C)O)NC(=O)[C@H](C(C)C)NC1=O [Compound 1007] ({CH2CO}-NYDWV[Bip]RK[dL]RLVTCA-NH2; thioether N-14)	45.3 nM
CC(C)C[C@@H]1NC(=O)[C@H](CCN)NC(=O)[C@@H](CC(C)C)NC(=O)[C@H](CCCCN)NC(=O)[C@H](CCCNC(=N)N)NC(=O)[C@H](Cc2ccc(-c3ccccc3)cc2)NC(=O)[C@H](C(C)C)NC(=O)[C@H](Cc2c[nH]c3ccccc23)NC(=O)[C@H](CC(=O)O)NC(=O)[C@H](Cc2ccc(O)cc2)NC(=O)[C@H](CC(N)=O)NC(=O)CSC[C@@H](C(=O)N[C@@H](C)C(N)=O)NC(=O)[C@H]([C@@H](C)O)NC(=O)[C@H](C(C)C)NC1=O [Compound 1008] ({CH2CO}-NYDWV[Bip]RK[dL][Dab]LVTCA-NH2; thioether N-14)	59.9 nM
CC(C)C[C@@H]1NC(=O)[C@H](CCN)NC(=O)[C@@H](CC(C)C)NC(=O)[C@H](CN)NC(=O)[C@H](CCCNC(=N)N)NC(=O)[C@H](Cc2ccc(-c3ccccc3)cc2)NC(=O)[C@H](C(C)C)NC(=O)[C@H](Cc2c[nH]c3ccccc23)NC(=O)[C@H](CC(=O)O)NC(=O)[C@H](Cc2ccc(O)cc2)NC(=O)[C@H](CC(N)=O)NC(=O)CSC[C@@H](C(=O)N[C@@H](C)C(N)=O)NC(=O)[C@H]([C@@H](C)O)NC(=O)[C@H](C(C)C)NC1=O [Compound 1009] ({CH2CO}-NYDWV[Bip]R[Dap][dL][Dab]LVTCA-NH2; thioether N-14)	52.9 nM
CC(C)C[C@@H]1NC(=O)[C@H](CCCNC(=N)N)NC(=O)[C@@H](CC(C)C)NC(=O)[C@H](CN)NC(=O)[C@H](CCCNC(=N)N)NC(=O)[C@H](Cc2ccc(-c3ccccc3)cc2)NC(=O)[C@H](C(C)C)NC(=O)[C@H](Cc2c[nH]c3ccccc23)NC(=O)[C@H](CC(=O)O)NC(=O)[C@H](Cc2ccc(O)cc2)NC(=O)[C@H](CC(N)=O)NC(=O)CSC[C@@H](C(=O)N[C@@H](C)C(N)=O)NC(=O)[C@H]([C@@H](C)O)NC(=O)[C@H](C(C)C)NC1=O [Compound 1010] ({CH2CO}-NYDWV[Bip]R[Dap][dL]RLVTCA-NH2; thioether N-14)	99.6 nM
